Common to all, as to assay: NCI anticancer screen, dose series, 48 h
Assay [1] deals with ACHN.
Assay [2] has as its system MDA-N.
Assay [3] has as its system MDA-MB-231.
The test system of assay [4] is T47D.
The subject of assay [5] is PC-3.
Assay [6] has as its system NCI-H460.
Assay [7] concerns UO-31.
Assay [8] has as its system M14.
Assay [9] has as its system SW-620.
Assay [10] has as its system SN12C.
Assay [11] has as its system EKVX.
Assay [12] deals with OVCAR-5.
In assay [13] the test system is DU-145.
The subject of assay [14] is HCT-15.
Assay [15] relates to MOLT-4.
The test system of assay [16] is SNB-19.
Assay [17] deals with HCT-116.
In assay [18] the test system is SK-OV-3.
For assay [19], the system named is COLO 205.
The subject of assay [20] is OVCAR-4.

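96-well plates; 48 h exposure; 5 concentrations. Endpoints by linear interpolation between flanking doses. Not reached: highest tested concentration assigned. The concentration for 50% growth inhibition is given as GI50.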 Active and inactive are the calls of the source. Rule as the data show it: active = GI50 up to about 1.1 µM and inactive = higher. Some results are limits rather than exact numbers.

Regarding `C=C(c1ccccc1)c1ccccc1-c1cc(-c2ccccc2)cc(-c2ccccc2)n1`, the GI50 is > 100 µM (inactive) in assay [1]; > 100 µM (inactive) in assay [2]; > 100 µM (inactive) in assay [3]; 9.08 µM (inactive) in assay [4]; > 100 µM (inactive) in assay [5]; > 100 µM (inactive) in assay [6]. The GI50 in assay [7], in assay [8], in [9], in [10], in assay [11] and in [12] was > 100 µM (inactive) in each case. Besides, the GI50 is > 100 µM (inactive) in [13]; > 100 µM in assay [14]; > 100 µM (inactive) in assay [15]; > 100 µM (inactive) in assay [16]; 65.8 µM (inactive) in assay [17].

`CC1=C(C(=O)NNC(=O)c2ccccc2O)CC(C(=O)NNC(=O)c2ccccc2O)=C(C)N1`: the GI50 in [1] was 0.424 µM (active); in [2] it was 0.336 µM (active); in [18] it was 5.57 µM (inactive); in assay [3], 5 µM (inactive); in [19], 16.9 µM (inactive); in assay [4] it was 0.498 µM (active). Further, the GI50 was 9.4 µM (inactive) in assay [20]; 0.533 µM (active) in [6]; 0.277 µM (active) in assay [7]; 2.22 µM (inactive) in assay [8]; 5.55 µM (inactive) in [9]; 5.83 µM (inactive) in assay [10]. Further, the GI50 was 7.78 µM (inactive) in assay [11]; 22.6 µM (inactive) in assay [12]; 0.566 µM (active) in assay [13]; 0.649 µM in assay [14]; 0.522 µM (active) in assay [15]; 0.839 µM (active) in assay [16]. The GI50 in assay [17] was 0.435 µM (active).

As for `Nc1ccc2c(c1)C(=O)c1c(F)cccc1-2`, the GI50 in assay [1] is 34.1 µM (inactive); in assay [2], 93.3 µM (inactive); in [18] it was 85.7 µM (inactive); in assay [3], 45.6 µM (inactive); in assay [19] it was 44.3 µM (inactive); in [4], 63.8 µM (inactive). The GI50 is 31.2 µM (inactive) in assay [5]; 31 µM (inactive) in assay [6]; 20.8 µM (inactive) in assay [7]; 50.4 µM (inactive) in assay [8]; 34.5 µM (inactive) in assay [9]; 39.1 µM (inactive) in assay [10]. Further, the GI50 was 0.656 µM (active) in assay [11]; 45 µM (inactive) in assay [13]; 39.3 µM in [14]; 53.1 µM (inactive) in assay [16]; 30.5 µM (inactive) in assay [17].

For `O=C1NC(=O)C23C(=O)NC(=O)C12C1C=CC3CC1` (stereo not given), the GI50 in assay [1], in assay [2], in [18], in assay [3], in assay [19] and in [4] was > 10 µM (inactive) throughout. Further, the GI50 in assay [20], in assay [5], in assay [6], in assay [7], in assay [8] and in [9] was > 10 µM (inactive) throughout. For the same compound, the GI50 was > 10 µM (inactive) in assay [10]; > 10 µM (inactive) in assay [11]; > 10 µM (inactive) in assay [13]; > 10 µM in assay [14]; > 10 µM (inactive) in [15]; > 10 µM (inactive) in assay [16]. The GI50 in assay [17] is > 10 µM (inactive).

Regarding `NNc1nncc2[nH]cnc12`, the GI50 in [1], in assay [2], in assay [3], in [19], in assay [4] and in assay [5] was > 100 µM (inactive) each time. Also, the GI50 in assay [6], in assay [7], in [8], in [9], in assay [10] and in assay [11] was > 100 µM (inactive) in each case. For the same compound, the GI50 is > 100 µM (inactive) in [12]; > 100 µM (inactive) in [13]; > 100 µM in assay [14]; > 100 µM (inactive) in assay [15]; > 100 µM (inactive) in assay [16]; > 100 µM (inactive) in assay [17].

For the compound `CCOC(=O)C1C(c2ccc3c(c2)OCO3)c2c(n[nH]c2O)CC1(C)O` (stereo not given), the GI50 in assay [1], in assay [2], in assay [3], in [19], in assay [4] and in assay [20] was > 100 µM (inactive) each time. The GI50 in assay [5], in [6], in assay [7], in assay [8], in [9] and in assay [10] was > 100 µM (inactive) throughout. The GI50 was > 100 µM (inactive) in assay [11]; > 100 µM (inactive) in assay [12]; > 100 µM (inactive) in [13]; > 100 µM in assay [14]; > 100 µM (inactive) in [15]; > 100 µM (inactive) in assay [16]. Also, in assay [17], the GI50 was > 100 µM (inactive).

As for `Cc1c(Br)c(Br)c(C)[s+]1[O-]`, the GI50 in assay [1] is 19 µM (inactive); in assay [2], 12.6 µM (inactive); in assay [18], 23.8 µM (inactive); in [3], 22.9 µM (inactive); in [19], 2.57 µM (inactive); in [4], 34.9 µM (inactive). The GI50 is 26.2 µM (inactive) in assay [20]; 17.5 µM (inactive) in assay [5]; 14.6 µM (inactive) in assay [6]; 13.6 µM (inactive) in [7]; 13.4 µM (inactive) in [8]; 8.89 µM (inactive) in assay [9]. The GI50 in [10] is 11.8 µM (inactive); in [11], 15.1 µM (inactive); in [12], 18 µM (inactive); in [14], 12.4 µM; in assay [15] it was 3.48 µM (inactive); in assay [16] it was 20.7 µM (inactive). In assay [17], the GI50 was 6 µM (inactive).

With `COc1ccc(C2(O)c3ccccc3C(=O)N(C)C2(O)c2ccc(OC)cc2)cc1` (stereo not given), the GI50 in [2] is 17.7 µM (inactive); in [18], > 100 µM (inactive); in assay [3], > 100 µM (inactive); in [19], 22.6 µM (inactive); in [4], 52.4 µM (inactive); in assay [20], 25.2 µM (inactive). For the same compound, the GI50 in [5] is 33.9 µM (inactive); in assay [6], 35.2 µM (inactive); in assay [7], 50.7 µM (inactive); in assay [8] it was 53.3 µM (inactive); in assay [9] it was 34.2 µM (inactive); in assay [10] it was > 100 µM (inactive). For the same compound, the GI50 in [11] is 86.7 µM (inactive); in assay [12], > 100 µM (inactive); in assay [13], > 100 µM (inactive); in [14] it was 40.4 µM; in assay [15] it was 24.7 µM (inactive); in [16] it was > 100 µM (inactive). In addition, in assay [17], the GI50 was 37.8 µM (inactive).

In the case of `O=C1NC(=S)NC(=O)C1C(c1ccc(O)cc1)C1C(=O)NC(=S)NC1=O.c1ccncc1`, the GI50 in assay [1], in [2], in assay [3], in assay [19], in [4] and in assay [20] was > 100 µM (inactive) each time. Moreover, the GI50 in assay [5], in assay [6], in assay [7], in assay [8], in assay [9] and in assay [10] was > 100 µM (inactive) throughout. For the same compound, the GI50 in [12] is > 100 µM (inactive); in assay [13], > 100 µM (inactive); in assay [14], > 100 µM; in assay [15], > 100 µM (inactive); in assay [16] it was > 100 µM (inactive); in [17] it was > 100 µM (inactive).

On to `O=C1c2ccccc2-c2c1c1ccccc1c(=O)n2Cc1ccccc1`, for which the GI50 in assay [2] was > 100 µM (inactive); in [18] it was > 100 µM (inactive); in [3] it was 50.1 µM (inactive); in assay [19], > 100 µM (inactive); in assay [4], > 100 µM (inactive); in assay [20] it was 14.5 µM (inactive). For the same compound, the GI50 in assay [5], in [7], in assay [8], in assay [9], in assay [10] and in assay [11] was > 100 µM (inactive) in each case. Also, the GI50 is > 100 µM (inactive) in [12]; 81.5 µM (inactive) in [13]; > 100 µM in [14]; > 100 µM (inactive) in assay [15]; > 100 µM (inactive) in [17].

As to `C/C(CC(O)(/C=N/O)c1ccccc1)=N/O` (stereo not given), the GI50 in assay [1], in assay [2], in assay [18], in assay [3], in [4] and in assay [20] was > 100 µM (inactive) in each case. The GI50 in assay [5], in [6], in assay [7], in assay [8], in assay [9] and in [10] was > 100 µM (inactive) in each case. For the same compound, the GI50 in [11] is > 100 µM (inactive); in assay [12], > 100 µM (inactive); in [14] it was > 100 µM; in assay [15], > 100 µM (inactive); in assay [16] it was > 100 µM (inactive); in assay [17], > 100 µM (inactive).

The values are drawn from ChEMBL document CHEMBL1201862, “PubChem BioAssay data set” (2004).
